Biological target: Bek (Homo sapiens, UniProt P21802)
Test: Inhibitory activity against Bek-autophosphorylation using ELISA method in OCUM-2MD3 cells
Assay type: cell-based
Settings: 1 hr with compound, read-out: IC50 (concentration necessary for inhibiting 50% of Bek-phosphorylation)
Procedure, shortened: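 OCUM-2MD3 human scirrhous gastric cancer cells in 0.1% FCS were exposed to compound for 1 hr at 37° C, then lysed. Phospho-tyrosine proteins were captured with anti-phosphotyrosine antibody, probed with anti-Bek antibody and peroxidase read-out (A450). Positive control (1000 nM) set 0%, untreated 100%; IC50 from multi-level dilutions.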

Sequence of Bek (P21802 431-767 limits assumed): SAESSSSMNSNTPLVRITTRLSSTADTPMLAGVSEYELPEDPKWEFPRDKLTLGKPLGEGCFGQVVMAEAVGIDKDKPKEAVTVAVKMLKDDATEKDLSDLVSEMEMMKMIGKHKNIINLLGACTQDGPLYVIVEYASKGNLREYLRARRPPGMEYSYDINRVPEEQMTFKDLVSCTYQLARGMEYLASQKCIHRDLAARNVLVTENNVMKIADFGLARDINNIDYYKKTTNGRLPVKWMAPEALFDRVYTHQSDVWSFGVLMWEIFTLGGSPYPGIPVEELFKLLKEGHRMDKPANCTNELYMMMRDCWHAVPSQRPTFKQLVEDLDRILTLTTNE

| IC50 [nM] | SMILES |
| --- | --- |
| 203 | CCN(CC)CC(O)COc1cc2nccc(Oc3ccc(Nc4ccc(C(C)(C)C)cc4)cc3)c2cc1OC (stereo not drawn) [Compound 60, 1-{4-[4-(4-Tert-butyl-phenylamino)phenoxy]-6-methoxyquinolin-7-yloxy}-3-diethylaminopropan-2-ol] |
| 1160 | COc1cc2nccc(Oc3ccc(NC(=O)NCCC(C)(C)C)cc3OC)c2cc1OC [Compound 139, 1-[4-(6,7-Dimethoxy-quinolin-4-yloxy)-3-methoxy-phenyl]-3-(3,3-dimethyl-butyl)-urea] |
| 195 | COc1cc2nccc(Oc3ccc(Nc4ccc(C(C)(C)C)cc4)c(F)c3)c2cc1OC [Compound 19, (4-Tert-butylphenyl)-[4-(6,7-dimethoxyquinolin-4-yloxy)-2-fluorophenyl]amine] |
| 95.3 | COc1cc2c(Oc3ccc(Nc4ccc(C(C)(C)C)cc4)c(F)c3)ccnc2cc1OCCN(CCO)CCO [Compound 335, 2-[(2-{4-[4-(4-Tert-butyl-phenylamino)-3-fluoro-phenoxy]-6-methoxy-quinolin-7-yloxy}-ethyl)-(2-hydroxy-ethyl)-amino]-ethanol] |
| 156 | COc1cc2c(Oc3ccc(Nc4ccc(C(C)C)cc4)cc3)ccnc2cc1OCC(=O)N1CCOCC1 [Compound 229, 2-{4-[4-(4-Isopropyl-phenylamino)-phenoxy]-6-methoxy-quinolin-7-yloxy}-1-morpholin-4-yl-ethanone] |
| 137 | COc1cc2nccc(Oc3ccc(Nc4ccc(C(C)(C)C)cc4)cc3)c2cc1OCCN1CCOCC1 [Compound 212, (4-Tert-butyl-phenyl)-{4-[7-methoxy-6-(2-morpholin-4-yl-ethoxy)-quinolin-4-yloxy]-phenyl}-amine] |
| < 10 | COc1cc2c(Oc3ccc(NC(=O)NCCC(C)(C)C)cc3)ccnc2cc1OCCN1CCC(CO)CC1 [Compound 371, 1-(3,3-Dimethyl-butyl)-3-(4-{7-[2-(4-hydroxymethyl-piperidin-1-yl)-ethoxy]-6-methoxy-quinolin-4-yloxy}-phenyl)-urea] |
| 1010 | COc1cc2nccc(Oc3ccc(C(OC(C)=O)c4ccc(C(C)(C)C)cc4)cc3)c2cc1OC (stereo not drawn) [Compound 31, (4-Tert-butylphenyl)-[4-(6,7-dimethoxyquinolin-4-yloxy)phenyl]methyl acetate] |
| < 10 | COc1cc2nccc(Oc3ccc(NC(=O)NCCC(C)(C)C)c(F)c3)c2cc1OC [Compound 111, 1-[4-(6,7-Dimethoxy-quinolin-4-yloxy)-2-fluoro-phenyl]-3-(3,3-dimethyl-butyl)-urea] |
| 13 | COc1cc2c(Oc3ccc(NC(=O)NCCC(C)(C)C)c(Cl)c3)ccnc2cc1OCCN1CC(C)OC(C)C1 (stereo not drawn) [Compound 125, 1-(2-Chloro-4-{7-[2-(2,6-dimethyl-morpholin-4-yl)-ethoxy]-6-methoxy-quinolin-4-yloxy}-phenyl)-3-(3,3-dimethyl-butyl)-urea] |
| 178 | COc1cc2c(Oc3ccc(NC(=O)NCCC(C)(C)C)c(Cl)c3)ccnc2cc1OCCN1CCC(C)CC1 [Compound 117, 1-(2-Chloro-4-{6-methoxy-7-[2-(4-methyl-piperidin-1-yl)-ethoxy]-quinolin-4-yloxy}-phenyl)-3-(3,3-dimethyl-butyl)-urea] |
| 88 | COc1cc2c(Oc3ccc(NC(=O)NCCC(C)(C)C)cc3)ccnc2cc1OCCN1CCC(c2ccccc2)CC1 [Compound 121, 1-(3,3-Dimethyl-butyl)-3-(4-{6-methoxy-7-[2-(4-phenyl-piperidin-1-yl)-ethoxy]-quinolin-4-yloxy}-phenyl)-urea] |
| 53 | COc1cc2c(Oc3ccc(Nc4ccc(C(C)(C)C)cc4)cc3F)ccnc2cc1OCCN(CCO)CCO [Compound 336, 2-[(2-{4-[4-(4-Tert-butyl-phenylamino)-2-fluoro-phenoxy]-6-methoxy-quinolin-7-yloxy}-ethyl)-(2-hydroxy-ethyl)-amino]-ethanol] |
| 294 | COc1cc2c(Oc3ccc(Nc4ccc(C(C)(C)C)cc4)cc3Cl)ccnc2cc1OCCN(CCO)CCO [Compound 346, 2-[(2-{4-[4-(4-Tert-butyl-phenylamino)-2-chloro-phenoxy]-6-methoxy-quinolin-7-yloxy}-ethyl)-(2-hydroxy-ethyl)-amino]-ethanol] |
| 151 | COc1cc2c(Oc3ccc(Nc4ccc(C(C)(C)C)cc4)cc3F)ccnc2cc1OCCCN1CCC(CCO)CC1 [Compound 272, 2-[1-(3-{4-[4-(4-Tert-butyl-phenylamino)-2-fluoro-phenoxy]-6-methoxy-quinolin-7-yloxy}-propyl)-piperidin-4-yl]-ethanol] |
| 16.5 | COc1cc2c(Oc3ccc(NC(=O)NCCC(C)(C)C)c(Cl)c3)ccnc2cc1OCCCNCCO [Compound 334, 1-(2-Chloro-4-{7-[3-(2-hydroxy-ethylamino)-propoxy]-6-methoxy-quinolin-4-yloxy}-phenyl)-3-(3,3-dimethyl-butyl)-urea] |

| IC50 [nM] | SMILES |
| --- | --- |
| 287 | COc1cc2nccc(Oc3ccc(NC(=O)NCCC(C)(C)C)cc3)c2cc1OCCCN1CCC(CCO)CC1 [Compound 324, 1-(3,3-Dimethyl-butyl)-3-[4-(6-{3-[4-(2-hydroxy-ethyl)-piperidin-1-yl]-propoxy}-7-methoxy-quinolin-4-yloxy)-phenyl]-urea] |
| 183 | COc1cc2c(Oc3ccc(Nc4ccc(C(C)(C)C)cc4)cc3)ccnc2cc1OCCCN1CCOCC1 [Compound 24, (4-Tert-butylphenyl)-{4-[6-methoxy-7-(3-morpholin-4-ylpropoxy)quinolin-4-yloxy]phenyl}amine] |
| 85.1 | COc1cc2c(Oc3ccc(NC(=O)NCCC(C)(C)C)cc3Cl)ccnc2cc1OCCCN1CCC(CCO)CC1 [Compound 316, 1-[3-Chloro-4-(7-{3-[4-(2-hydroxy-ethyl)-piperidin-1-yl]-propoxy}-6-methoxy-quinolin-4-yloxy)-phenyl]-3-(3,3-dimethyl-butyl)-urea] |
| 27 | COc1cc2c(Oc3ccc(NC(=O)NCCC(C)(C)C)c(Cl)c3)ccnc2cc1OCCCN1CCC[C@H]1CO [Compound 208, 1-(2-Chloro-4-{7-[3-(2-hydroxymethyl-pyrrolidin-1-yl)-propoxy]-6-methoxy-quinolin-4-yloxy}-phenyl)-3-(3,3-dimethyl-butyl)-urea] |
| 17.8 | COc1cc2c(Oc3ccc(NC(=O)NCCC(C)(C)C)c(F)c3)ccnc2cc1OCCN(C)CCO [Compound 330, 1-(3,3-Dimethyl-butyl)-3-[2-fluoro-4-(7-{2-[(2-hydroxy-ethyl)-methyl-amino]-ethoxy}-6-methoxy-quinolin-4-yloxy)-phenyl]-urea] |
| 20.4 | COc1cc2c(Oc3ccc(NC(=O)NCCC(C)(C)C)c(Cl)c3)ccnc2cc1OCCCN1CC(C)OC(C)C1 (stereo not drawn) [Compound 317, 1-(2-Chloro-4-{7-[3-(2,6-dimethyl-morpholin-4-yl)-propoxy]-6-methoxy-quinolin-4-yloxy}-phenyl)-3-(3,3-dimethyl-butyl)-urea] |
| 367 | COc1cc2c(Oc3ccc(Nc4ccc(C(C)(C)C)cc4)cc3Cl)ccnc2cc1OCCN1CCC(CCO)CC1 [Compound 313, 2-[1-(2-{4-[4-(4-Tert-butyl-phenylamino)-2-chloro-phenoxy]-6-methoxy-quinolin-7-yloxy}-ethyl)-piperidin-4-yl]-ethanol] |
| 184 | COc1cc2c(Oc3ccc(Nc4ccc(C(C)(C)C)cc4)cc3)ccnc2cc1OCC(O)CN1CCCN(C)CC1 (stereo not drawn) [Compound 65, 1-{4-[4-(4-Tert-butylphenylamino)phenoxy]-6-methoxyquinolin-7-yloxy}-3-(4-methyl-[1,4]diazepin-1-yl)propan-2-ol] |
| 23.1 | COc1cc2c(Oc3ccc(NC(=O)NCCC(C)(C)C)cc3Cl)ccnc2cc1OCCN1CCC(O)CC1 [Compound 311, 1-(3-Chloro-4-{7-[2-(4-hydroxy-piperidin-1-yl)-ethoxy]-6-methoxy-quinolin-4-yloxy}-phenyl)-3-(3,3-dimethyl-butyl)-urea] |
| < 10 | COc1cc2nccc(Oc3ccc(NC(=O)NC4CCCC(C)(C)C4)cc3)c2cc1OC (stereo not drawn) [Compound 108, 1-[4-(6,7-Dimethoxy-quinolin-4-yloxy)-phenyl]-3-(3,3-dimethyl-cyclohexyl)-urea] |
| 26.1 | COc1cc2nccc(Oc3ccc(Nc4ccc(C(C)(C)C)cc4)cc3)c2cc1O [Compound 214, 4-[4-(4-Tert-butyl-phenylamino)-phenoxy]-7-methoxy-quinolin-6-ol] |
| 126 | COc1cc2nccc(Oc3ccc(Nc4ccc(C(C)(C)C)cc4)cc3)c2cc1OCC(O)CN1CCOCC1 (stereo not drawn) [Compound 213, 1-{4-[4-(4-Tert-butyl-phenylamino)-phenoxy]-7-methoxy-quinolin-6-yloxy}-3-morpholin-4-yl-propan-2-ol] |
| 38 | COc1cc2c(Oc3ccc(Nc4ccc(C(C)(C)C)cc4)cc3)ccnc2cc1OCCCN1CCCC1 [Compound 53, (4-Tert-butylphenyl)-{4-[6-methoxy-7-(3-pyrrolidin-1-ylpropoxy)-quinolin-4-yloxy]phenyl}amine] |
| 42.6 | COc1cc2c(Oc3ccc(NC(=O)NCCC(C)(C)C)cc3)ccnc2cc1OCC(O)CN1CCC(c2ccccc2)CC1 (stereo not drawn) [Compound 252, 1-(3,3-Dimethyl-butyl)-3-(4-{7-[2-hydroxy-3-(4-phenyl-piperidin-1-yl)-propoxy]-6-methoxy-quinolin-4-yloxy}-phenyl)-urea] |
| 247 | COc1cc2c(Oc3ccc(Nc4ccc(C(C)(C)C)cc4)cc3)ccnc2cc1OCC(O)CN1CCCCCC1 (stereo not drawn) [Compound 63, 1-Azepan-1-yl-3-{4-[4-(4-tert-butylphenylamino)phenoxy]-6-methoxyquinolin-7-yloxy}propan-2-ol] |

| SMILES | IC50 [nM] |
| --- | --- |
| COc1cc2c(Oc3ccc(NC(=O)NCCC(C)(C)C)c(Cl)c3)ccnc2cc1OCCCCCl [Compound 162, 1-{2-Chloro-4-[7-(4-chloro-butoxy)-6-methoxy-quinolin-4-yloxy]-phenyl}-3-(3,3-dimethyl-butyl)-urea] | 252 |
| COc1cc2c(Oc3ccc(NC(=O)NCCC(C)(C)C)cc3)ccnc2cc1OCCCCCl [Compound 153, 1-{4-[7-(4-Chloro-butoxy)-6-methoxy-quinolin-4-yloxy]-phenyl}-3-(3,3-dimethyl-butyl)-urea] | 241 |

Reference: patent US7495104B2, “Quinoline or quinazoline derivatives inhibiting auto-phosphorylation of fibroblast growth factor receptors” (Kirin Beer Kabushiki Kaisha, priority 2001, dated 2009)
